Laboratory results taken from patent US20260345619A1 (Principia Biopharma Inc., priority 2023, published 2026).

Test: Loss of asthma control (LOAC) events, 12-week ICS/LABA withdrawal study
Type: in vivo, human
Description: The general construct of this 12-week Loss of Asthma Control (LOAC) study consisted of a 4-week standardized ICS/LABA background therapy stabilization phase, a 4or 5-week background therapy withdrawal phase and a 3- or 4-week no background therapy phase, followed by a 4-week post IMP treatment safety follow-up period at the beginning of which, pre-screening asthma controller medications are restarted. Participants had access to short-acting β-agonist (SABA) reliever medication at all times during the protocol.
The primary endpoint was the proportion of patients with LOAC. The key secondary endpoint for the study was change in pre-bronchodilator FEV1 from baseline at EOT.
The primary endpoint was proportion of participants with LOAC during the 12-week treatment period.
Note that if the number of participants in some regions was too low, these regions may have been pooled with other regions. This strategy also applied to all the rest of the analyses where region was one of the covariates.
To assess the consistency in treatment effects across different subgroup levels, subgroup analyses were to be performed for the primary efficacy endpoint with respect to age group, gender, region, and other factors.
Secondary endpoints included pre-bronchodilator FEV1 change from baseline at EOT, ACQ-5 score change from baseline, and AQLQ score change from baseline. Other secondary and exploratory endpoints are described in Table 2.

[1] = 400 mg BID cohort, Latin America, n = 25
[2] = 400 mg BID cohort, N = 32, mITT
[3] = 400 mg BID cohort, age <45 years, n = 12
[4] = 400 mg BID cohort, age ≥45 years, n = 20
[5] = 400 mg BID cohort, baseline BMI <25 kg/m^2, n = 8
[6] = 400 mg BID cohort, baseline BMI ≥25-<30 kg/m^2, n = 16
[7] = 400 mg BID cohort, baseline BMI ≥30 kg/m^2, n = 8
[8] = 400 mg BID cohort, baseline weight ≥60-<90 kg, n = 23
[9] = 400 mg BID cohort, female, n = 18
[10] = 400 mg BID cohort, male, n = 14
[11] = 400 mg BID, N=32, 12 weeks, mITT
[12] = 400 mg BID, 1 exacerbation within 2 years
[13] = 400 mg BID, 2 exacerbations within 2 years
[14] = 400 mg BID, >2 exacerbations within 2 years
[15] = 400 mg BID, FEV1 reversibility <12 %
[16] = 400 mg BID, FEV1 reversibility ≥12 %
[17] = 400 mg BID, age at onset <12 years
[18] = 400 mg BID, age at onset <18 years
[19] = 400 mg BID, age at onset ≥12-<18 years
[20] = 400 mg BID, age at onset ≥18-<40 years

## CC(C)(C=C(C#N)C(=O)N1CCC[C@@H](n2nc(-c3ccc(Oc4ccccc4)cc3F)c3c(N)ncnc32)C1)N1CCN(C2COC2)CC1 (mixture of isomers) [rilzabrutinib, (R)-2-[3-[4-amino-3-(2-fluoro-4-phenoxy-phenyl)pyrazolo[3,4-d]pyrimidin-1-yl]piperidine-1-carbonyl]-4-methyl-4-[4-(oxetan-3-yl)piperazin-1-yl]pent-2-enenitrile]
400 mg BID cohort, APAC, n = 2
  LOAC incidence, number of participants: 2
  LOAC incidence, percentage: (100)
400 mg BID cohort, Eastern Europe, n = 3
  LOAC incidence, number of participants: 1
400 mg BID cohort, Eastern Europe, 95% CI (0.023, 11.088)
  LOAC OR vs. placebo: 0.500
400 mg BID cohort, Eastern Europe, 95% CI (−0.891, 0.558)
  LOAC RD vs. placebo: −0.167
[1]
  LOAC incidence, number of participants: 9
  LOAC incidence, percentage: (36.0)
400 mg BID cohort, Latin America, 95% CI (0.230, 2.230)
  LOAC OR vs. placebo: 0.716
400 mg BID cohort, Latin America, 95% CI (−0.351, 0.191)
  LOAC RD vs. placebo: −0.080
[2]
  Intervention discontinuation due to lack of efficacy or an AE related to asthma worsening, number: 0
  Number of participants requiring hospitalization or emergency room visit: 0
  Number of participants with LOAC: No: 20
  Number of participants with LOAC: Yes: 12
  Number of participants with increase in ICS ≥4 times the last prescribed ICS dose (or ≥50% of the prescribed ICS dose at baseline if background therapy withdrawal completed): 1
  Number of participants with ≥6 additional reliever puffs of salbutamol/albuterol or levosalbutamol/levalbuterol in a 24 hour period (compared with baseline) on 2 consecutive days: 2
  Number of participants with ≥30% reduction from baseline in AM PEF on 2 consecutive days: 6
  Participants with LOAC not triggered by use of rescue medication, number: 6
  Participants with LOAC not triggered by use of rescue medication, percentage: (18.8)
  Participants with LOAC triggered by use of rescue medication, number: 6
  Participants with LOAC triggered by use of rescue medication, percentage: (18.8)
  Percentage of participants with LOAC: No: (62.5)
  Percentage of participants with LOAC: Yes: (37.5)
  Percentage of participants with increase in ICS ≥4 times the last prescribed ICS dose (or ≥50% of the prescribed ICS dose at baseline if background therapy withdrawal completed): (3.1)
  Percentage of participants with ≥6 additional reliever puffs of salbutamol/albuterol or levosalbutamol/levalbuterol in a 24 hour period (compared with baseline) on 2 consecutive days: (6.3)
  Percentage of participants with ≥30% reduction from baseline in AM PEF on 2 consecutive days: (18.8)
400 mg BID cohort, Western Countries, n = 2
  LOAC incidence, number of participants: 0
[3]
  LOAC incidence, number of participants: 6
  LOAC incidence, percentage: (50.0)
400 mg BID cohort, age <45 years, 95% CI (0.342, 18.129)
  LOAC OR vs. placebo: 2.489
400 mg BID cohort, age <45 years, 95% CI (−0.266, 0.634)
  LOAC RD vs. placebo: 0.184
[4]
  LOAC incidence, number of participants: 6
  LOAC incidence, percentage: (30.0)
400 mg BID cohort, age ≥45 years, 95% CI (0.069, 1.023)
  LOAC OR vs. placebo: 0.266
400 mg BID cohort, age ≥45 years, 95% CI (−0.583, −0.007)
  LOAC RD vs. placebo: −0.295
[5]
  LOAC incidence, number of participants: 3
  LOAC incidence, percentage: (37.5)
400 mg BID cohort, baseline BMI <25 kg/m^2, 95% CI (0.033, 2.763)
  LOAC OR vs. placebo: 0.300
400 mg BID cohort, baseline BMI <25 kg/m^2, 95% CI (−0.796, 0.213)
  LOAC RD vs. placebo: −0.292
[6]
  LOAC incidence, number of participants: 6
  LOAC incidence, percentage: (37.5)
400 mg BID cohort, baseline BMI ≥25-<30 kg/m^2, 95% CI (0.168, 2.709)
  LOAC OR vs. placebo: 0.675
400 mg BID cohort, baseline BMI ≥25-<30 kg/m^2, 95% CI (−0.431, 0.240)
  LOAC RD vs. placebo: −0.096
[7]
  LOAC incidence, number of participants: 3
  LOAC incidence, percentage: (37.5)
400 mg BID cohort, baseline BMI ≥30 kg/m^2, 95% CI (0.107, 5.238)
  LOAC OR vs. placebo: 0.750
400 mg BID cohort, baseline BMI ≥30 kg/m^2, 95% CI (−0.536, 0.397)
  LOAC RD vs. placebo: −0.069
400 mg BID cohort, baseline weight <60 kg, n = 3
  LOAC incidence, number of participants: 0
[8]
  LOAC incidence, number of participants: 10
  LOAC incidence, percentage: (43.5)
400 mg BID cohort, baseline weight ≥60-<90 kg, 95% CI (0.366, 3.640)
  LOAC OR vs. placebo: 1.154
400 mg BID cohort, baseline weight ≥60-<90 kg, 95% CI (−0.244, 0.314)
  LOAC RD vs. placebo: 0.035
400 mg BID cohort, baseline weight ≥90 kg, n = 6
  LOAC incidence, number of participants: 2
400 mg BID cohort, baseline weight ≥90 kg, 95% CI (0.013, 4.729)
  LOAC OR vs. placebo: 0.250
400 mg BID cohort, baseline weight ≥90 kg, 95% CI (−0.987, 0.320)
  LOAC RD vs. placebo: −0.333
[9]
  LOAC incidence, number of participants: 7
  LOAC incidence, percentage: (38.9)
400 mg BID cohort, female, 95% CI (0.076, 1.263)
  LOAC OR vs. placebo: 0.311
400 mg BID cohort, female, 95% CI (−0.560, 0.045)
  LOAC RD vs. placebo: −0.258
[10]
  LOAC incidence, number of participants: 5
  LOAC incidence, percentage: (35.7)
400 mg BID cohort, male, 95% CI (0.173, 24.590)
  LOAC OR vs. placebo: 2.062
400 mg BID cohort, male, 95% CI (−0.420, 0.931)
  LOAC RD vs. placebo: 0.256
[11]
  participants without LOAC, number: 20
  participants without LOAC, percent: (62.5)
400 mg BID, N=32, 12 weeks, mITT, placebo 16
  participants with LOAC, number: 12
400 mg BID, mITT
  RRR vs. placebo (%), LOAC: 24.4%
400 mg BID, mITT, 95% CI 0.433, 1.319
  RR vs. placebo, LOAC: 0.756
400 mg BID, mITT, 95% CI −0.361, 0.115
  RD (risk difference) vs. placebo, LOAC: −0.123
[12]
  OR vs. placebo: 1.218
  RD vs. Placebo: 0.059
[13]
  LOAC, number: 4
  OR vs. placebo: 0.471
  RD vs. Placebo: −0.199
[14]
  LOAC, number: 3
  OR vs. placebo: 0.508
[15]
  OR vs. placebo: 0.611
  RD vs. Placebo: −0.119
[16]
  LOAC, number: 6
  OR vs. placebo: 0.533
  RD vs. Placebo: −0.156
[17]
  LOAC, number: 4
  OR vs. placebo: 2.000
  RD vs. Placebo: 0.159
[18]
  OR vs. placebo: 1.402
  RD vs. Placebo: 0.126
[19]
  LOAC, number: 1
  OR vs. placebo: 0.250
  RD vs. Placebo: −0.300
[20]
  LOAC, number: 4
  OR vs. placebo: 0.267
